Test results taken from patent US20200055883A1, “CYCLIC DI-NUCLEOTIDES DERIVATIVE FOR THE TREATMENT OF CANCER” (Eisai R&D Management Co., Ltd., priority 2017, published 2020).

Each compound was assayed against Human STING HAQ (Homo sapiens, UniProt Q86WV6, G230A/H232R/R293Q/R71H) (assay: HAQ STING agonist activity reporter assay (THP1-Dual cells)). Settings: Human STING EC50 (μM) HAQ, Table 4; ammonium salt form of each compound; 20 hrs.
Chain of Human STING HAQ (Q86WV6 whole entry R71H/G230A/H232R/R293Q): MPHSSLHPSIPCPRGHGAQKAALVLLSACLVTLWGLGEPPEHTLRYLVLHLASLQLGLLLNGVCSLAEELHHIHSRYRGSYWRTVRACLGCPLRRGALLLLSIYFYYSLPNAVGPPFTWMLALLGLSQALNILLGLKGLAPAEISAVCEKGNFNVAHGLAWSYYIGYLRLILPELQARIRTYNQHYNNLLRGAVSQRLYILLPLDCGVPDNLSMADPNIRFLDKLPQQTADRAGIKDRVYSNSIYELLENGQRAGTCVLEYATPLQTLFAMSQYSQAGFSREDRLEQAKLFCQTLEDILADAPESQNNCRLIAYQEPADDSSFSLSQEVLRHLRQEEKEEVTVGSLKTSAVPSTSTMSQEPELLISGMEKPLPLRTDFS
Work on `O=[P@]1(S)OC[C@H]2OC3[C@H](O)[C@@H]2O[P@](=O)(S)OC[C@H]2O[C@H]([C@H](O1)[C@@H]2O)n1cnc2c(ncnc21)NC/C=C/CNc1ncnc2c1ncn23` [Compound 13] yielded an EC50 of 26.7 µM.

Same assay, conditions: Human STING EC50 (μM) HAQ, Table 5; ammonium salt form of each compound; 20 hrs
Compound `O=P1(S)OC[C@H]2O[C@@H]3[C@H](F)[C@@H]2OP(=O)(S)OC[C@H]2OC([C@H](F)[C@@H]2O1)n1cnc2c(ncnc21)NCC/C=C/CNc1ncnc2c1ncn23` (single isomer, unassigned) [Compound 11] has an EC50 of 6.8 µM. Work on `O=P1(S)OC[C@H]2O[C@@H]3[C@H](F)[C@@H]2OP(=O)(S)OC[C@H]2OC([C@H](F)[C@@H]2O1)n1cnc2c(ncnc21)NCC/C=C/CNc1ncnc2c1ncn23` (single isomer, unassigned) [Compound 12] yielded an EC50 of 8.2 µM.

Same assay, conditions: hSTING EC50 (μM) HAQ
`Nc1nc2c3ncn(c3n1)[C@@H]1O[C@@H]3COP(O)(=S)O[C@H]4[C@@H](F)[C@@H](O[C@@H]4COP(O)(=S)O[C@H]3[C@H]1F)n1cnc3c(ncnc31)NC/C=C/CO2` (single isomer, unassigned) [Compound 21] showed an EC50 of 83.3 µM. In the case of `Nc1nc2c3ncn(c3n1)[C@@H]1O[C@@H]3COP(O)(=S)O[C@H]4[C@@H](F)[C@@H](O[C@@H]4COP(O)(=S)O[C@H]3[C@H]1F)n1cnc3c(ncnc31)NC/C=C/CO2` (single isomer, unassigned) [Compound 22], the EC50 is reported as 41.2 µM. `Nc1nc2c3ncn(c3n1)[C@@H]1O[C@@H]3COP(O)(=S)O[C@H]4[C@@H](F)[C@@H](O[C@@H]4COP(O)(=S)O[C@H]3[C@H]1F)n1cnc3c(ncnc31)NC/C=C/CO2` (stereo partly shown) [Compound 23] was tested, and the EC50 was 62.3 µM. For `O=P1(O)OC[C@H]2OC3[C@H](F)[C@@H]2O[P@@](O)(=S)OC[C@H]2O[C@H]([C@H](F)[C@@H]2O1)n1cnc2c(ncnc21)NC/C=C/CNc1ncnc2c1ncn23` [Compound 27], the EC50 was 9.8 µM. `O=P1(O)OC[C@H]2OC3[C@H](F)[C@@H]2O[P@](O)(=S)OC[C@H]2O[C@H]([C@H](F)[C@@H]2O1)n1cnc2c(ncnc21)NC/C=C/CNc1ncnc2c1ncn23` [Compound 28] was tested, and the EC50 was 10.2 µM.

Same assay, conditions: hSTING EC50 (μM) HAQ, Table 6; ammonium salt form, except Compounds 26, 33, 34 tested as bis-TEA salts
Compound `O=P1(S)OC[C@H]2O[C@@H]3[C@H](F)[C@@H]2OP(=O)(S)OC[C@H]2O[C@H]([C@H](F)[C@@H]2O1)n1cnc2c(ncnc21)NC/C=C/COc1ncnc2c1ncn23` (single isomer, unassigned) [Compound 18] has an EC50 of 2.3 µM. Compound `O=P1(S)OC[C@H]2O[C@@H]3[C@H](F)[C@@H]2OP(=O)(S)OC[C@H]2O[C@H]([C@H](F)[C@@H]2O1)n1cnc2c(ncnc21)NC/C=C/COc1ncnc2c1ncn23` (single isomer, unassigned) [Compound 19] has an EC50 of 94.1 µM. Work on `O=P1(S)OC[C@H]2O[C@@H]3[C@H](F)[C@@H]2OP(=O)(S)OC[C@H]2O[C@H]([C@H](F)[C@@H]2O1)n1cnc2c(ncnc21)NC/C=C/COc1ncnc2c1ncn23` (single isomer, unassigned) [Compound 20] yielded an EC50 of 2.8 µM. For `O=[P@]1(S)OC[C@H]2OC3[C@H](F)[C@@H]2O[P@](=O)(S)OC[C@H]2O[C@H]([C@H](F)[C@@H]2O1)n1cnc2c(ncnc21)NCC1NC1CNc1ncnc2c1ncn23` (single isomer, unassigned) [Compound 35], the EC50 was 44.5 µM. For `O=[P@]1(S)OC[C@H]2OC3[C@H](F)[C@@H]2O[P@](=O)(S)OC[C@H]2O[C@H]([C@H](F)[C@@H]2O1)n1cnc2c(ncnc21)NCC1NC1CNc1ncnc2c1ncn23` (single isomer, unassigned) [Compound 36], the EC50 was 31.4 µM. Work on `O=[P@@]1(S)OC[C@H]2O[C@@H]3[C@H](F)[C@@H]2O[P@](=O)(S)OC[C@H]2OC([C@H](F)[C@@H]2O1)n1cnc2c(ncnc21)OC/C=C/COc1ncnc2c1ncn23` [Compound 26] yielded an EC50 of 2.3 µM. `O=[P@]1(S)OC[C@H]2OC3[C@H](F)[C@@H]2O[P@](=O)(S)OC[C@H]2O[C@H]([C@H](F)[C@@H]2O1)n1cnc2c(ncnc21)NCC#CCNc1ncnc2c1ncn23` [Compound 29] was tested, and the EC50 was 0.62 µM.

Same assay, conditions: hSTING EC50 (μM) HAQ, Table 7; ammonium salt form of each compound
For `O=P1(S)OC[C@H]2OC3[C@H](OP(=O)(S)OC[C@H]4O[C@H]([C@H](O1)[C@@H]4O)n1cnc4c(ncnc41)NC/C=C/CNc1ncnc4c1ncn43)[C@@H]2O` (stereo partly shown) [Compound 31], the EC50 was 20.2 µM.
